The record followed here is patent publication US20220389008A1, “4-QUINOLINONE ANTIBACTERIAL COMPOUNDS” (Janssen Sciences Ireland Unlimited Company, priority 2019, published 2022).

The first series has as its system Mycobacterium tuberculosis (strain H37Ra), cyt bd.
Test: not given
The settings on record: Mtb H37Ra; test compound 10 μM added after Compound X 0.9 μM.
On to `Cc1c(-c2nc3ccc(-c4ccc(C(F)(F)F)cc4)cn3n2)[nH]c2ccccc2c1=O` [Compound 4], for which the “(i) % OCR after cyt bd inhibitor” value is recorded as 32.75%.
Still for that read-out and setting: the same measure for `Cc1c(-c2cc3ccc(-c4ccc(OC(F)(F)F)cc4)cn3n2)[nH]c2ccccc2c1=O` [Compound 5]: 43.48%.
For `Cc1c(-c2nc3ccc(-c4cccc(F)c4)cn3n2)[nH]c2ccccc2c1=O` [Compound 12], the “(i) % OCR after cyt bd inhibitor” value was 62.09%.
On the same count and under the same terms, the same measure for `Cc1c(-c2nc3ccc(-c4nc(C(F)(F)F)cs4)cn3n2)[nH]c2ccccc2c1=O` [Compound 18]: 76.01%; for `Cc1c(-c2nc3ccc(C(F)(F)F)cn3n2)[nH]c2ccccc2c1=O` [Compound 19]: 99.4%; for `Cc1c(-c2cc3ccc(-c4ccc(OC(F)(F)F)cc4)cn3c2)[nH]c2ccccc2c1=O` [Compound 22]: 82.7%.
On the same count and under the same terms, under `Cc1c(-c2cn3ccc(Oc4ccc(OC(F)(F)F)cc4)cc3n2)[nH]c2ccccc2c1=O` [Compound 29] stands 64.6%.

The series is the same for the next values; noted with them: Mtb H37Ra; test compound 10 μM after Compound X 0.9 μM, then CCCP 1 μM.
`Cc1c(-c2nc3ccc(-c4ccc(C(F)(F)F)cc4)cn3n2)[nH]c2ccccc2c1=O` [Compound 4]: the “(ii) % OCR after cccp” value is listed as 40.05%.
On the same count and under the same terms, under `Cc1c(-c2cc3ccc(-c4ccc(OC(F)(F)F)cc4)cn3n2)[nH]c2ccccc2c1=O` [Compound 5] stands 49.26%.
On to `Cc1c(-c2nc3ccc(-c4cccc(F)c4)cn3n2)[nH]c2ccccc2c1=O` [Compound 12], for which the “(ii) % OCR after cccp” value worked out at 79.37%.
On the same count and under the same terms, the same measure for `Cc1c(-c2nc3ccc(-c4nc(C(F)(F)F)cs4)cn3n2)[nH]c2ccccc2c1=O` [Compound 18]: 98.7%; for `Cc1c(-c2nc3ccc(C(F)(F)F)cn3n2)[nH]c2ccccc2c1=O` [Compound 19]: 100.5%.
On the same count and under the same terms, under `Cc1c(-c2cc3ccc(-c4ccc(OC(F)(F)F)cc4)cn3c2)[nH]c2ccccc2c1=O` [Compound 22] stands 109.8%.
Same read-out and setting: the same measure for `Cc1c(-c2cn3ccc(Oc4ccc(OC(F)(F)F)cc4)cc3n2)[nH]c2ccccc2c1=O` [Compound 29]: 118.5%.

The subject of the next series is rCaCh. As to the kind of experiment: CVS / cardio tox rCaCh. In kind it is binding, rat.
Settings: not given
`Cc1c(-c2nc3ccc(-c4ccc(C(F)(F)F)cc4)cn3n2)[nH]c2ccccc2c1=O` [Compound 4]: the “Cardio tox rCaCh IC50 (µM)” value was over 10.
The same measure, in the same setting: the same measure for `Cc1c(-c2cc3ccc(-c4ccc(OC(F)(F)F)cc4)cn3n2)[nH]c2ccccc2c1=O` [Compound 5]: >10, >10, >10; for `Cc1c(-c2nc3ccc(-c4cccc(F)c4)cn3n2)[nH]c2ccccc2c1=O` [Compound 12]: over 10; for `Cc1c(-c2nc3ccc(-c4nc(C(F)(F)F)cs4)cn3n2)[nH]c2ccccc2c1=O` [Compound 18]: over 10.
With `Cc1c(-c2nc3ccc(C(F)(F)F)cn3n2)[nH]c2ccccc2c1=O` [Compound 19], the “Cardio tox rCaCh IC50 (µM)” value is reported as >10, >10, >10.
Still for that read-out and setting: the same measure for `Cc1c(-c2cc3ccc(-c4ccc(OC(F)(F)F)cc4)cn3c2)[nH]c2ccccc2c1=O` [Compound 22]: over 10.
The same measure, in the same setting: under `Cc1c(-c2cn3ccc(Oc4ccc(OC(F)(F)F)cc4)cc3n2)[nH]c2ccccc2c1=O` [Compound 29] stands 3.3.

The subject of the next series is rNaCh. The series is described as follows: CVS / cardio tox rNaCh. The class given is binding, rat. The settings on record: read-out: Cardio tox rNaCH (IC50).
In the case of `Cc1c(-c2nc3ccc(-c4ccc(C(F)(F)F)cc4)cn3n2)[nH]c2ccccc2c1=O` [Compound 4], the concentration for half-maximal inhibition (IC50) stood at 2.3 µM.
Regarding `Cc1c(-c2cc3ccc(-c4ccc(OC(F)(F)F)cc4)cn3n2)[nH]c2ccccc2c1=O` [Compound 5], the concentration for half-maximal inhibition (IC50) is over 10 µM.
Still for that read-out and setting: under `Cc1c(-c2nc3ccc(-c4cccc(F)c4)cn3n2)[nH]c2ccccc2c1=O` [Compound 12] stands over 10 µM.
For the compound `Cc1c(-c2nc3ccc(-c4nc(C(F)(F)F)cs4)cn3n2)[nH]c2ccccc2c1=O` [Compound 18], the IC50 worked out at 1.51 µM.
On the same count and under the same terms, the same measure for `Cc1c(-c2nc3ccc(C(F)(F)F)cn3n2)[nH]c2ccccc2c1=O` [Compound 19]: over 10 µM.
Still for that read-out and setting: under `Cc1c(-c2cc3ccc(-c4ccc(OC(F)(F)F)cc4)cn3c2)[nH]c2ccccc2c1=O` [Compound 22] stands 6.9 µM; under `Cc1c(-c2cn3ccc(Oc4ccc(OC(F)(F)F)cc4)cc3n2)[nH]c2ccccc2c1=O` [Compound 29], 2.3 µM.

The test system of the next series is Mycobacterium tuberculosis strain H37Rv ΔctaE-ΔqcrCAB. As to the kind of experiment: microbe, parasite or virus in culture. In kind it is cell-based. The settings on record: 240 h.
The compound `Cc1c(-c2nc3ccc(-c4ccc(C(F)(F)F)cc4)cn3n2)[nH]c2ccccc2c1=O` [Compound 4] showed an IC50 of 1.25 µM.
Same read-out and setting: the same measure for `Cc1c(-c2cc3ccc(-c4ccc(OC(F)(F)F)cc4)cn3n2)[nH]c2ccccc2c1=O` [Compound 5]: 1.27 µM.
Same read-out and setting: the same measure for `Cc1c(-c2nc3ccc(-c4cccc(F)c4)cn3n2)[nH]c2ccccc2c1=O` [Compound 12]: 0.885 µM; for `Cc1c(-c2nc3ccc(-c4nc(C(F)(F)F)cs4)cn3n2)[nH]c2ccccc2c1=O` [Compound 18]: 1.88 µM.
The same measure, in the same setting: the same measure for `Cc1c(-c2cc3ccc(-c4ccc(OC(F)(F)F)cc4)cn3c2)[nH]c2ccccc2c1=O` [Compound 22]: 3.75 µM.

For the next series, the target named is hERG (Homo sapiens, UniProt Q12809). The series is described as follows: CVS / cardio tox hERG (DOF). The class given is binding. The settings on record: DOF; read-out: Cardio tox hERG(DOF) (IC50).
Chain of hERG (Q12809 whole entry): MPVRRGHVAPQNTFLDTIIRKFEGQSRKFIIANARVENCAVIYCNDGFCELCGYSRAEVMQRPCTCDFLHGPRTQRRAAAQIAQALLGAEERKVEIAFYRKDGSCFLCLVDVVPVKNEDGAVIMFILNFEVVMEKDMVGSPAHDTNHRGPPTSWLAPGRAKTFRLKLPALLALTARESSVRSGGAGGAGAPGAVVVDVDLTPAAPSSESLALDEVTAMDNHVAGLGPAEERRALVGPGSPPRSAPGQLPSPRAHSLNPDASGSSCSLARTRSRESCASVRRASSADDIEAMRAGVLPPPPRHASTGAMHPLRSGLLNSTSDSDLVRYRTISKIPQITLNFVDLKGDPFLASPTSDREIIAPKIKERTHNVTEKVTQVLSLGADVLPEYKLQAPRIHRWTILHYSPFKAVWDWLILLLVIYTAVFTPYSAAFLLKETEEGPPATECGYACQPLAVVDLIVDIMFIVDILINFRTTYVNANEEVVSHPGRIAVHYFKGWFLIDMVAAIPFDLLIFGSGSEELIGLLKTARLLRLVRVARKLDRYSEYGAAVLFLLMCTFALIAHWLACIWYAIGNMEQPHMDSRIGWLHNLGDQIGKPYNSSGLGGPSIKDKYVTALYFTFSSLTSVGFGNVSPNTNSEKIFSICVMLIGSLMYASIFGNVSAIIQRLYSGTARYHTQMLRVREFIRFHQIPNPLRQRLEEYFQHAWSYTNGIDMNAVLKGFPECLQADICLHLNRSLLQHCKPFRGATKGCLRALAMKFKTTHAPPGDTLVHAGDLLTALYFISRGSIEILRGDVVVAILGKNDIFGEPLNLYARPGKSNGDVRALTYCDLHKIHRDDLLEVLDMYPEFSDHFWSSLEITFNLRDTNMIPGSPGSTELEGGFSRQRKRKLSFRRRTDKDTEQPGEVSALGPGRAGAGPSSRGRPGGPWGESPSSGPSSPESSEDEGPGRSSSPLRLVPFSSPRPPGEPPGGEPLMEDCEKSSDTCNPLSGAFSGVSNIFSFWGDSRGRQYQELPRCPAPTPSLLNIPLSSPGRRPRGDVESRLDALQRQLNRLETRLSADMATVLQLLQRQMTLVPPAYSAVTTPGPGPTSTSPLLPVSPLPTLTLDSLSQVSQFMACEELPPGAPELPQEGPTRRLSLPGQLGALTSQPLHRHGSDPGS
In the case of `Cc1c(-c2nc3ccc(-c4ccc(C(F)(F)F)cc4)cn3n2)[nH]c2ccccc2c1=O` [Compound 4], the IC50 was over 10 µM.
Still for that read-out and setting: under `Cc1c(-c2cc3ccc(-c4ccc(OC(F)(F)F)cc4)cn3n2)[nH]c2ccccc2c1=O` [Compound 5] stands over 10 µM; under `Cc1c(-c2nc3ccc(-c4cccc(F)c4)cn3n2)[nH]c2ccccc2c1=O` [Compound 12], over 3.02 µM.
The same measure, in the same setting: the same measure for `Cc1c(-c2nc3ccc(-c4nc(C(F)(F)F)cs4)cn3n2)[nH]c2ccccc2c1=O` [Compound 18]: over 10 µM; for `Cc1c(-c2nc3ccc(C(F)(F)F)cn3n2)[nH]c2ccccc2c1=O` [Compound 19]: over 10 µM; for `Cc1c(-c2cc3ccc(-c4ccc(OC(F)(F)F)cc4)cn3c2)[nH]c2ccccc2c1=O` [Compound 22]: over 10 µM.
Regarding `Cc1c(-c2cn3ccc(Oc4ccc(OC(F)(F)F)cc4)cc3n2)[nH]c2ccccc2c1=O` [Compound 29], the IC50 is about 9.1 µM.

In another series the test system is Mitochondrial toxicity (Glu/Gal). As to the kind of experiment: Mitochondrial toxicity (Glu/Gal) assay. Set-up: key to Score: “negative” means that in the test, it was found to have low mitotoxicity (and hence no mitotoxicity alerts); “positive” means that there were some mitotoxicity alerts; “inconclusive” means that no accurate conclusion could be drawn. The settings on record: galactose medium; read-out: IC50, gal. In kind it is cell-based.
In the case of `Cc1c(-c2nc3ccc(-c4ccc(C(F)(F)F)cc4)cn3n2)[nH]c2ccccc2c1=O` [Compound 4], the 50% inhibitory concentration (IC50) stood at 50 µM.
Still for that read-out and setting: the same measure for `Cc1c(-c2cc3ccc(-c4ccc(OC(F)(F)F)cc4)cn3n2)[nH]c2ccccc2c1=O` [Compound 5]: 45.9 µM; for `Cc1c(-c2nc3ccc(-c4cccc(F)c4)cn3n2)[nH]c2ccccc2c1=O` [Compound 12]: 100 µM; for `Cc1c(-c2nc3ccc(-c4nc(C(F)(F)F)cs4)cn3n2)[nH]c2ccccc2c1=O` [Compound 18]: 15.8 µM.
Still for that read-out and setting: under `Cc1c(-c2nc3ccc(C(F)(F)F)cn3n2)[nH]c2ccccc2c1=O` [Compound 19] stands 100 µM; under `Cc1c(-c2cc3ccc(-c4ccc(OC(F)(F)F)cc4)cn3c2)[nH]c2ccccc2c1=O` [Compound 22], 9.9 µM; under `Cc1c(-c2cn3ccc(Oc4ccc(OC(F)(F)F)cc4)cc3n2)[nH]c2ccccc2c1=O` [Compound 29], 53.7 µM.

The series is the same for the next values; noted with them: glucose medium; read-out: IC50, glu.
Turning to `Cc1c(-c2nc3ccc(-c4ccc(C(F)(F)F)cc4)cn3n2)[nH]c2ccccc2c1=O` [Compound 4], the concentration for half-maximal inhibition (IC50) came out at 50 µM.
The same measure, in the same setting: under `Cc1c(-c2cc3ccc(-c4ccc(OC(F)(F)F)cc4)cn3n2)[nH]c2ccccc2c1=O` [Compound 5] stands 106 µM; under `Cc1c(-c2nc3ccc(-c4cccc(F)c4)cn3n2)[nH]c2ccccc2c1=O` [Compound 12], 100 µM; under `Cc1c(-c2nc3ccc(-c4nc(C(F)(F)F)cs4)cn3n2)[nH]c2ccccc2c1=O` [Compound 18], 23.4 µM.
On to `Cc1c(-c2nc3ccc(C(F)(F)F)cn3n2)[nH]c2ccccc2c1=O` [Compound 19], for which the IC50 was 100 µM.
On to `Cc1c(-c2cc3ccc(-c4ccc(OC(F)(F)F)cc4)cn3c2)[nH]c2ccccc2c1=O` [Compound 22], for which the concentration for half-maximal inhibition (IC50) stood at 140 µM.
The same measure, in the same setting: the same measure for `Cc1c(-c2cn3ccc(Oc4ccc(OC(F)(F)F)cc4)cc3n2)[nH]c2ccccc2c1=O` [Compound 29]: 79.7 µM.

Still in this series, the particulars now being: mitotoxicity score.
Turning to `Cc1c(-c2nc3ccc(-c4ccc(C(F)(F)F)cc4)cn3n2)[nH]c2ccccc2c1=O` [Compound 4], the Score result is on record as “negative”.
As to `Cc1c(-c2cc3ccc(-c4ccc(OC(F)(F)F)cc4)cn3n2)[nH]c2ccccc2c1=O` [Compound 5], the Score result is recorded as “inconclusive”.
Still for that read-out and setting: the same measure for `Cc1c(-c2nc3ccc(-c4cccc(F)c4)cn3n2)[nH]c2ccccc2c1=O` [Compound 12]: “negative”.
On the same count and under the same terms, the same measure for `Cc1c(-c2nc3ccc(-c4nc(C(F)(F)F)cs4)cn3n2)[nH]c2ccccc2c1=O` [Compound 18]: “negative”; for `Cc1c(-c2nc3ccc(C(F)(F)F)cn3n2)[nH]c2ccccc2c1=O` [Compound 19]: “negative”; for `Cc1c(-c2cc3ccc(-c4ccc(OC(F)(F)F)cc4)cn3c2)[nH]c2ccccc2c1=O` [Compound 22]: “positive”.
Still for that read-out and setting: under `Cc1c(-c2cn3ccc(Oc4ccc(OC(F)(F)F)cc4)cc3n2)[nH]c2ccccc2c1=O` [Compound 29] stands “negative”.

The same series, now with this note: ratio glu/gal.
`Cc1c(-c2nc3ccc(-c4ccc(C(F)(F)F)cc4)cn3n2)[nH]c2ccccc2c1=O` [Compound 4]: the “Δ IC50,glu/IC50,gal” value was “[x]0”.
On the same count and under the same terms, under `Cc1c(-c2cc3ccc(-c4ccc(OC(F)(F)F)cc4)cn3n2)[nH]c2ccccc2c1=O` [Compound 5] stands “[x]2.32”; under `Cc1c(-c2nc3ccc(-c4cccc(F)c4)cn3n2)[nH]c2ccccc2c1=O` [Compound 12], “[x]0”.
Turning to `Cc1c(-c2nc3ccc(-c4nc(C(F)(F)F)cs4)cn3n2)[nH]c2ccccc2c1=O` [Compound 18], the “Δ IC50,glu/IC50,gal” value was “[x]1.48”.
The same measure, in the same setting: under `Cc1c(-c2nc3ccc(C(F)(F)F)cn3n2)[nH]c2ccccc2c1=O` [Compound 19] stands “[x]0”; under `Cc1c(-c2cc3ccc(-c4ccc(OC(F)(F)F)cc4)cn3c2)[nH]c2ccccc2c1=O` [Compound 22], over 13.3.
The same measure, in the same setting: the same measure for `Cc1c(-c2cn3ccc(Oc4ccc(OC(F)(F)F)cc4)cc3n2)[nH]c2ccccc2c1=O` [Compound 29]: 1.5.
